Assay results taken from ChEMBL document CHEMBL1221363, “Cytotoxicity of new pyrazino[1,2-b]isoquinoline and 6,15-iminoisoquino[3,2-b]3-benzazocine compounds” (2010).

Columns and labels:
Format in all cases: functional
[1] = system: A549; experiment: Cytotoxicity against human A549 cells after 48 hrs by SRB assay; conditions: A549, 48 h
[2] = system: MDA-MB-231; experiment: Cytotoxicity against human MDA-MB-231 cells after 48 hrs by SRB assay; conditions: MDA-MB-231, 48 h; for CC50: read-out: LC50 (the source's name)
[3] = system: HT-29; experiment: Cytotoxicity against human HT-29 cells after 48 hrs by SRB assay; conditions: HT-29, 48 h

| Structure (SMILES) | GI50 [1] [µM] | LC50 (concentration causing 50% net cell kill) [1] [µM] | TGI [1] [µM] | GI50 [2] [µM] | TGI [2] [µM] | CC50 [2] [µM] | GI50 [3] [µM] | LC50 [3] [µM] | TGI [3] [µM] |
| --- | --- | --- | --- | --- | --- | --- | --- | --- | --- |
| COc1c(C)c(OC)c(OC)c2c1C[C@H]1[C@@H](OC)N(C(=O)OC(C)C)CC(=O)N1[C@H]2COCc1ccccc1 | 11.2 | > 18.4 | > 18.4 | 12.3 | > 18.4 | > 18.4 | 0.195 | 0.527 | 0.273 |
| COc1c(C)c(OC)c(OC)c2c1C[C@H]1CN(C(=O)OC(C)(C)C)CC(=O)N1[C@H]2COCc1ccccc1 | 8.82 | > 19 | > 19 | 14.1 | > 19 | > 19 | 8.66 | > 18.4 | > 18.4 |
| COc1c(C)c(OC)c(OC)c2c1C[C@H]1CN(C(=O)OC(C)C)[C@@H](Cc3ccccc3)C(=O)N1[C@H]2COCc1ccccc1 | > 16.6 | > 16.6 | > 16.6 | > 16.6 | > 16.6 | > 16.6 | 16.3 | > 16.3 | > 16.3 |
| COc1c(C)c(OC)c(OC)c2c1C[C@H]1CN(C(=O)OC(C)(C)C)[C@@H](Cc3ccccc3)C(=O)N1[C@H]2COCc1ccccc1 | 7.3 | > 16.2 | > 16.2 | 7.13 | 10.5 | > 16.2 | 9.13 | > 16.6 | > 16.6 |
| COc1c(C)c(OC)c(OC)c2c1C[C@H]1CN(C)[C@@H](Cc3ccccc3)C(=O)N1[C@H]2COCc1ccccc1 | 12.2 | > 18.8 | > 18.8 | > 18.8 | > 18.8 | > 18.8 | 13 | > 16.2 | > 16.2 |
| COc1c(C)c(OC)c(OC)c2c1C[C@H]1[C@@H](OC)N(C(=O)OC(C)C)[C@@H](Cc3ccccc3)C(=O)N1[C@H]2COCc1ccccc1 | 11.1 | > 15.8 | > 15.8 | 12.2 | > 15.8 | > 15.8 | 11.3 | > 18.8 | > 18.8 |
| COc1ccc(C[C@H]2C(=O)N3[C@@H](COCc4ccccc4)c4c(c(OC)c(C)c(OC)c4OC)C[C@H]3[C@@H](OC)N2C(=O)OC(C)C)cc1OC | 6.21 | > 14.4 | > 14.4 | 9.53 | > 14.4 | > 14.4 | 12.3 | > 15.8 | > 15.8 |
| COc1ccc(C[C@H]2C(=O)N3[C@@H](COCc4ccccc4)c4c(c(OC)c(C)c(OC)c4OC)C[C@H]3[C@@H](OC)N2C(=O)OC(C)(C)C)cc1OC | 9.2 | > 14.1 | > 14.1 | > 14.1 | > 14.1 | > 14.1 | 9.38 | > 14.4 | > 14.4 |
| COc1cc(C[C@@H]2NCC3=Cc4c(OC)c(C)c(OC)c(OC)c4[C@H](COC(=O)c4cccc5ccccc45)N3C2=O)c(OC)c(C)c1OC | 2.78 | > 14.6 | > 14.6 | 8.79 | > 14.6 | > 14.6 | 7.64 | > 14.1 | > 14.1 |
| COc1cc(C[C@H]2NC=C3Cc4c(OC)c(C)c(OC)c(OC)c4[C@H](COC(=O)/C=C/c4ccccc4)N3C2=O)c(OC)c(C)c1OC | 6.53 | > 15.2 | > 15.2 | 10.6 | > 15.2 | > 15.2 | 11.1 | > 14.6 | > 14.6 |
| COc1c(C)c(OC)c(OC)c2c1C[C@H]1[C@H]3c4ccccc4C[C@@H](C(=O)N1[C@H]2COCc1ccccc1)N3C(=O)OC(C)C | > 16.6 | > 16.6 | > 16.6 | 8.32 | > 16.6 | > 16.6 | 12.3 | > 15.2 | > 15.2 |
| COc1c(C)c(OC)c(OC)c2c1C[C@H]1[C@H]3c4ccccc4C[C@@H](C(=O)N1[C@H]2CO)N3C(=O)OC(C)C | > 19.6 | > 19.6 | > 19.6 | 17.6 | > 19.6 | > 19.6 | 14 | > 16.6 | > 16.6 |
| COc1c(C)c(OC)c(OC)c2c1C[C@H]1N[C@@H]2[C@@H]2Cc3c(OC)c(C)c(OC)c(OC)c3[C@H](COC(=O)c3cccc4ccccc34)N2C1=O | 7.32 | > 14.6 | > 14.6 | 10.3 | > 14.6 | > 14.6 | 6.67 | > 18 | > 18 |
| COc1c(C)c(OC)c(OC)c2c1C[C@H]1CN(C(=O)OC(C)C)CC(=O)N1[C@H]2COCc1ccccc1 |  |  |  |  |  |  | 8.32 |  | 9.84 |
| COc1c(C)c(OC)c(OC)c2c1C[C@H]1[C@@H](O)N(C(=O)OC(C)C)CC(=O)N1[C@H]2COCc1ccccc1 |  |  |  |  |  |  |  | > 1.31 |  |
| CCCN1CC(=O)N2[C@@H](Cc3c(OC)c(C)c(OC)c(OC)c3[C@@H]2COCc2ccccc2)C1 (relative stereo) | 10 | > 21.3 | > 21.3 | 16.6 | > 21.3 | > 21.3 | 11.2 | > 19 | > 19 |
| COc1c(C)c(OC)c(OC)c2c1C[C@H]1CN(Cc3ccccc3)CC(=O)N1[C@H]2COCc1ccccc1 (relative stereo) | 7.16 | > 19.4 | 16.1 | 11.2 | > 19.4 | > 19.4 | 12 | > 21.3 | > 21.3 |
| COc1c(C)c(OC)c(OC)c2c1C[C@H]1CN(Cc3ccc4ccccc4c3[N+](=O)[O-])CC(=O)N1[C@H]2COCc1ccccc1 (relative stereo) | > 16.3 | > 16.3 | > 16.3 | 8.01 | > 16.3 | > 16.3 | 4.06 | 17.8 | 9.48 |
| COc1c(C)c(OC)c(OC)c2c1C[C@@H]1N[C@H]2[C@@H]2Cc3c(OC)c(C)c(OC)c(OC)c3[C@H](CO)N2C1=O (relative stereo) | > 18.9 | > 18.9 | > 18.9 | 16.1 | > 18.9 | > 18.9 | 12.3 | > 15.1 | > 15.1 |
| COc1c(C)c(OC)c(OC)c2c1C[C@H]1[C@@H]3N[C@@H](Cc4ccccc43)C(=O)N1[C@H]2COC(=O)c1cccc2ccccc12 (relative stereo) | 13.3 | > 17.3 | > 17.3 | 8.64 | > 17.3 | > 17.3 | > 18.9 | > 18.9 | > 18.9 |
| COc1c(C)c(OC)c(OC)c2c1C[C@H]1[C@@H]3N[C@@H](Cc4ccccc43)C(=O)N1[C@H]2COC(=O)/C=C/c1ccccc1 (relative stereo) | 1.05 | > 18 | > 18 | 15 | > 18 | > 18 | 6.22 | > 17.3 | > 17.3 |
| COc1c(C)c(OC)c(OC)c2c1C[C@H]1[C@@H]3c4c(c(OC)c(C)c(OC)c4OC)C[C@H](C(=O)N1C2COC(=O)c1cccc2ccccc12)N3C (relative stereo) | 6.17 | > 14.4 | > 14.4 | 7.46 | > 14.4 | > 14.4 | 6.88 | > 14.6 | > 14.6 |
| COc1c(C)c(OC)c(OC)c2c1C[C@H]1[C@H]3c4ccccc4C[C@@H]([C@H](C#N)N1[C@H]2CO)N3C (relative stereo) | 5.78 | 18.7 | 12 | 7.65 | 12.9 | 18.7 | 5.17 | > 14.4 | > 14.4 |
| COc1c(C)c(OC)c(OC)c2c1C[C@H]1[C@H](C#N)N3[C@@H](CO)c4c(c(OC)c(C)c(OC)c4OC)C[C@H]3[C@@H]2N1C (relative stereo) | 3.43 | 13.2 | 8.13 | 4.7 | 9.03 | 14.1 | 7.12 | 15.1 | 10.5 |
| COc1c(C)c(OC)c(OC)c2c1C[C@H]1[C@H]3c4ccccc4C[C@@H]([C@H](C#N)N1[C@H]2COC(=O)/C=C/c1cccc(C(F)(F)F)c1)N3C (relative stereo) | 2.32 | 3.86 | 2.93 | 2.47 | 2.62 | 2.78 | 3.25 | 6.5 | 4.52 |
| COc1cc2c(cc1O)CCN[C@]21CS[C@@H]2c3c(OC(C)=O)c(C)c4c(c3[C@H](COC1=O)N1[C@@H]2[C@H]2c3c(cc(C)c(OC)c3O)C[C@@H]([C@@H]1O)N2C)OCO4 [TRABECTEDIN] | 0.00281 |  | 0.00315 | 0.000396 | 0.00101 | 0.0017 | 2.47 |  | 2.93 |
